Measured values taken from paper PMC9027131, “Dual PI3K/Akt Inhibitors Bearing Coumarin-Thiazolidine Pharmacophores as Potential Apoptosis Inducers in MCF-7 Cells” (Pharmaceuticals, 2022).
Where two headings read alike, the source gives them in different places. Blank lines part the entries; values can stand above or below the compound they belong to.

Tests used:
MCF-7 cells [1] = experiment: MTT cytotoxicity assay in MCF-7 cells; format: cell-based, human; details: means ± sd, n = 3
Method: The in vitro anticancer activity of the designed coumarin-thiosemicarbazones and coumarin-thiazolidine-4-one hybrids against MCF-7 cells was tested using the MTT assay, and 5-fluorouracil (5-FU) was used as the reference drug. The tested compounds were used in different concentrations, and cell survival was determined after incubation for 48 h as reported. The cytotoxic activity is represented in Table 1 as IC50 (µM) values.
(§1) MCF-7 breast cancer cell line (ATCC® HTB-22™) plus non-tumorigenic epithelial cell line (MCF 10, ATCC® CRL-10317™) were supplied from VACSERA (Cairo, Egypt) and cultured in Dulbecco’s Modified Eagle Medium (Invitrogen-Life Technologies, Carlsbad, CA, USA) with 1% antibiotic solution (streptomycin–penicillin) plus 10% fetal bovine serum (Hyclone) in a 5% (v/v) humidified CO2 incubator at 37 °C.
Firstly, cells were kept in a humidified atmosphere (37 °C, 24 h), and then incubated with serial concentrations of the tested compounds. After 48 h, the medium was aspirated, and then cells were incubated with 5% MTT solution (M-5655; Sigma Aldrich, St. Louis, MO USA) (200 µL/well, 2 h), allowing the dye to metabolize into the colored insoluble formazan complex that was then dissolved in the appropriate solubilization solution (M-8910) (200 µL/well), for 30 min with gentle mixing at room temperature. The UV absorbance was measured using a microplate reader (570 nm), and cell viability was determined with respect to untreated control cells. […] The values were means ± sd; n = 3.

MCF-7 cells [2] = experiment: Cell cycle analysis by flow cytometry (propidium iodide); format: cell-based, human; details: MCF-7, treated at IC50, 48 h
Method: VIIb-treated cells were subjected to cell cycle phase distribution analysis as well as apoptosis rates determination by flow cytometric analysis in MCF-7 cells, as reported.
Control and VIIb-treated (IC50 µM, 48 h) MCF-7 cells were harvested and then subjected to cell cycle analysis by flow cytometry.
Cell cycle analysis and apoptosis rates following VIIb treatment were investigated using a Propidium Iodide Flow Cytometry Kit (ab139418; Abcam, Cambridge, UK) and Annexin V-FITC apoptosis kit (Catalog: K101-25; BioVision Research Products, San Francisco, CA, USA), respectively, following the manufacturer’s instructions as stated by a previous study.

PI3K α = details: cited from earlier work
PI3K β = details: Figure 1, pan PI3K inhibitor; cited from earlier work
PI3K δ = details: cited from earlier work
[3] = tested on: MCF 10 non-tumorigenic epithelial cell line; experiment: MTT assay in non-cancerous epithelial cells (MCF 10); format: cell-based; details: for IC50: Homo sapiens, MCF10, MTT assay, non-cancerous epithelial cells, means ± sd, n = 3; for Selectivity Index MCF-10/MCF-7: ratio of IC50 MCF-10 to IC50 MCF-7
Method: as §1
Firstly, cells were kept in a humidified atmosphere (37 °C, 24 h), and then incubated with serial concentrations of the tested compounds. After 48 h, the medium was aspirated, and then cells were incubated with 5% MTT solution (M-5655; Sigma Aldrich, St. Louis, MO USA) (200 µL/well, 2 h), allowing the dye to metabolize into the colored insoluble formazan complex that was then dissolved in the appropriate solubilization solution (M-8910) (200 µL/well), for 30 min with gentle mixing at room temperature. The UV absorbance was measured using a microplate reader (570 nm), and cell viability was determined with respect to untreated control cells.

Akt-1 = target: T1, Akt-1 (Homo sapiens, UniProt P31749); experiment: Akt Kinase Activity assay kit; format: biochemical; details: means ± sd, n = 3; read-out: IC50 (µM) Akt-1 Isoform
T1 construct: purchased Abcam ab139436
T1 sequence (P31749 whole entry, species assumed, canonical isoform): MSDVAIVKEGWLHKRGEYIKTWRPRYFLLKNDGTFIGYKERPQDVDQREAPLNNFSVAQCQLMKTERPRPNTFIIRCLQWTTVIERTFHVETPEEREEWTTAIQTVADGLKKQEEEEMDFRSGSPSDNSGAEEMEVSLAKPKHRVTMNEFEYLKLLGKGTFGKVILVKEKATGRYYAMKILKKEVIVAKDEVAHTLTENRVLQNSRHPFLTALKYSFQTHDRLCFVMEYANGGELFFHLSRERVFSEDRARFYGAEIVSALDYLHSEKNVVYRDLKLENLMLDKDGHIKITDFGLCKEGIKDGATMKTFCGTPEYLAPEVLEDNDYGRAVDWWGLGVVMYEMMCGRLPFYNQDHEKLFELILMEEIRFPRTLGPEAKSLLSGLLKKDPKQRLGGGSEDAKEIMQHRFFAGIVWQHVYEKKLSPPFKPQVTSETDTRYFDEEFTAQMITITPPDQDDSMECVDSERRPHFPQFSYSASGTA
Text: Accumulating evidence highlighted that PI3K signaling pathway upregulation is highly implicated in breast cancer development and disease progression as well as resistance to hormones and cytotoxic therapy. Therefore, it is essential to elucidate the effect of the novel compound, VIIb, on the PI3K/Akt signaling pathway by using in vitro PI3K class 1A enzyme inhibition assay conducted on PI3K-α and PI3K-γ isoforms as well as an Akt-1 enzyme inhibition assay. […] Furthermore, targeting the PI3K-γ isoform in breast cancer could contribute to enhancing the anti-tumor immunity.
The in vitro inhibition of PI3K and Akt kinase activities by VIIb was assessed using a PI3Kα (p110α/p85) assay kit (Catalog #79781; BPS Bioscience, Inc, San Diego, CA, USA), PI3Kγ (p110γ/PIK3R5) assay kit (Catalog #79803; BPS Bioscience, Inc, San Diego, CA, USA), and Akt Kinase Activity assay kit (ab139436; Abcam, Cambridge, UK) following the manufacturer’s instructions as described previously. The results were expressed as IC50 values using dose–response curves and linear regression equations. LY294002 compound was taken as the reference compound. The values were means ± sd; n = 3.

Akt = details: Figure 1, reported Akt inhibitor; cited from earlier work

SMILES: CCOc1ccc2c(C)cc(=O)oc2c1C(C)=NN=C1SCC(=O)N1C (mixture of isomers) [VIIIa, (Z/E)-2-{[1-(7-Ethoxy-4-methylcoumarin-8-yl)-ethylidene]-hydrazono}-3-methyl-thiazolidin-4-one]
IC50 (MCF-7 cells [1]; 48 h): 20.3 ± 1.06 µM

SMILES: CCOc1ccc2c(C)cc(=O)oc2c1C(C)=NN=C1SCC(=O)N1CC (mixture of isomers) [VIIIb, (Z/E)-2-{[1-(7-Ethoxy-4-methylcoumarin-8-yl)-ethylidene]-hydrazono}-3-ethyl-thiazolidin-4-one]
IC50 (MCF-7 cells [1]; 48 h): 57.3 ± 2.99 µM
DNA Content % Pre G1 (MCF-7 cells [2]; control 1.55): 35.25%
DNA Content % G2/M (MCF-7 cells [2]; control 9.71): 5.59%
DNA Content % S (MCF-7 cells [2]; control 36.58): 46.02%
DNA Content % G0/G1 (MCF-7 cells [2]; control 53.71): 48.39%

SMILES: C=CCN1C(=O)CSC1=NN=C(C)c1c(OCC)ccc2c(C)cc(=O)oc12 (mixture of isomers) [VIIIc, (Z/E)-3-Allyl-2-{[1-(7-ethoxy-4-methylcoumarin-8-yl)-ethylidene]-hydrazono}-thiazolidin-4-one]
IC50 (MCF-7 cells [1]; 48 h): 4.95 ± 0.26 µM

SMILES: CCOc1ccc2c(C)cc(=O)oc2c1C(C)=NN=C1SCC(=O)N1Cc1ccccc1 (mixture of isomers) [VIIId, (Z/E)-3-Benzyl-2-{[1-(7-ethoxy-4-methylcoumarin-8-yl)-ethylidene]-hydrazono}-thiazolidin-4-one]
IC50 (MCF-7 cells [1]; 48 h): 79.9 ± 4.18 µM

SMILES: CCOc1ccc2c(C)cc(=O)oc2c1C(C)=NN=C1SCC(=O)N1C(=O)c1ccccc1 (mixture of isomers) [VIIIe, (Z/E)-3-Benzoyl-2-{[1-(7-ethoxy-4-methylcoumarin-8-yl)-ethylidene]-hydrazono}-thiazolidin-4-one]
IC50 (MCF-7 cells [1]; 48 h): 26.4 ± 1.38 µM

SMILES: COc1ccc(-c2nc(N/N=C/c3c[nH]c4ccccc34)nc(N3CCOCC3)c2C#N)cc1 [Compound 1]
IC50 (PI3K α; Figure 1, pan PI3K inhibitor, read-out: IC50 (α)): 960 nM
IC50 (PI3K β): 940 nM
IC50 (PI3K δ; Figure 1, pan PI3K inhibitor): 640 nM

SMILES: O=c1[nH]cc(F)c(=O)[nH]1 [Compound 5-FU, 5-fluorouracil, reference compound]
IC50 (MCF-7 cells [1]; Homo sapiens, MCF7, 48 h): 27.8 ± 1.41 µM
IC50 [3]: 36.2 ± 1.89 µM
Selectivity Index MCF-10/MCF-7 [3]: 1.30

IC50 (Akt-1): 3.53 ± 0.18 µM
SMILES: O=c1cc(N2CCOCC2)oc2c(-c3ccccc3)cccc12 [LY294002, reference compound]

SMILES: NC1(c2ccc(-c3nc4ccn5c(=O)[nH]nc5c4cc3-c3ccccc3)cc2)CCC1 [MK-2206]
IC50 (Akt): 8 nM

melting point: 202 to 204 °C
SMILES: CCOc1ccc2c(C)cc(=O)oc2c1/C(C)=N\NC(=S)NC [VIa, (Z/E)-1(1-(7-ethoxy-4-methylcoumarin)ethylidene)-4-methyl-thiosemicarbazone]
IC50 (MCF-7 cells [1]; Homo sapiens, MCF7, 48 h): 11.1 ± 0.58 µM

melting point: 183 °C
SMILES: CCNC(=S)N/N=C(/C)c1c(OCC)ccc2c(C)cc(=O)oc12 [VIb, (Z/E)-1(1-(7-ethoxy-4-methylcoumarin)ethylidene)-4-ethyl-thiosemicarbazone]
IC50 (MCF-7 cells [1]; Homo sapiens, MCF7, 48 h): 38.7 ± 2.09 µM

melting point: 100 to 102 °C
SMILES: C=CCNC(=S)N/N=C(/C)c1c(OCC)ccc2c(C)cc(=O)oc12 [VIc, (Z/E)-1(1-(7-ethoxy-4-methylcoumarin)ethylidene)-4-allyl-thiosemicarbazone]
IC50 (MCF-7 cells [1]; Homo sapiens, MCF7, 48 h): 2.72 ± 0.13 µM

melting point: 140 to 143 °C
SMILES: CCOc1ccc2c(C)cc(=O)oc2c1/C(C)=N\NC(=S)NCc1ccccc1 [VId, (Z/E)-1(1-(7-ethoxy-4-methylcoumarin)ethylidene)-4-benzyl-thiosemicarbazone]
IC50 (MCF-7 cells [1]; Homo sapiens, MCF7, 48 h): 2.61 ± 0.14 µM

melting point: 220 to 223 °C
SMILES: CCOc1ccc2c(C)cc(=O)oc2c1/C(C)=N\NC(=S)NC(=O)c1ccccc1 [VIe, (Z/E)-1(1-(7-ethoxy-4-methylcoumarin)ethylidene)-4-benzoyl-thiosemicarbazone]
IC50 (MCF-7 cells [1]; Homo sapiens, MCF7, 48 h): 43.1 ± 2.25 µM

SMILES: CCOc1ccc2c(C)cc(=O)oc2c1/C(C)=N\NC(=S)Nc1ccc(OC)cc1 [VIf]
IC50 (MCF-7 cells [1]; Homo sapiens, MCF7, 48 h): 1.21 ± 0.06 µM
IC50 [3]: 20.1 ± 1.05 µM
Selectivity Index MCF-10/MCF-7 [3]: 16.61

SMILES: C/C(=N/NC(=S)NCc1ccccc1)c1c(O)ccc2c(C)cc(=O)oc12 [Va]
IC50 (MCF-7 cells [1]; Homo sapiens, MCF7, 48 h): 5.13 ± 0.28 µM

SMILES: C/C(=N/NC(=S)NC(=O)c1ccccc1)c1c(O)ccc2c(C)cc(=O)oc12 [Vb]
IC50 (MCF-7 cells [1]; Homo sapiens, MCF7, 48 h): 47.3 ± 2.47 µM
